The values below come from patent publication US8436178B2, “Imidazoquinolines with immuno-modulating properties” (AstraZeneca AB, priority 2007, dated 2013).

pEC50: −log10 of the molar value. Where a name gives a salt, the structure may show the parent alone.

In this assay the target is T1, human TLR7 (Homo sapiens, UniProt Q9NYK1).
T1 construct: expressed in transfected cells; host or cells: HEK293 cell line stably expressing the pNiFty2-SEAP reporter plasmid; TLR7 in pUNO vector, blasticidin selection
T1 sequence (Q9NYK1 27-1049): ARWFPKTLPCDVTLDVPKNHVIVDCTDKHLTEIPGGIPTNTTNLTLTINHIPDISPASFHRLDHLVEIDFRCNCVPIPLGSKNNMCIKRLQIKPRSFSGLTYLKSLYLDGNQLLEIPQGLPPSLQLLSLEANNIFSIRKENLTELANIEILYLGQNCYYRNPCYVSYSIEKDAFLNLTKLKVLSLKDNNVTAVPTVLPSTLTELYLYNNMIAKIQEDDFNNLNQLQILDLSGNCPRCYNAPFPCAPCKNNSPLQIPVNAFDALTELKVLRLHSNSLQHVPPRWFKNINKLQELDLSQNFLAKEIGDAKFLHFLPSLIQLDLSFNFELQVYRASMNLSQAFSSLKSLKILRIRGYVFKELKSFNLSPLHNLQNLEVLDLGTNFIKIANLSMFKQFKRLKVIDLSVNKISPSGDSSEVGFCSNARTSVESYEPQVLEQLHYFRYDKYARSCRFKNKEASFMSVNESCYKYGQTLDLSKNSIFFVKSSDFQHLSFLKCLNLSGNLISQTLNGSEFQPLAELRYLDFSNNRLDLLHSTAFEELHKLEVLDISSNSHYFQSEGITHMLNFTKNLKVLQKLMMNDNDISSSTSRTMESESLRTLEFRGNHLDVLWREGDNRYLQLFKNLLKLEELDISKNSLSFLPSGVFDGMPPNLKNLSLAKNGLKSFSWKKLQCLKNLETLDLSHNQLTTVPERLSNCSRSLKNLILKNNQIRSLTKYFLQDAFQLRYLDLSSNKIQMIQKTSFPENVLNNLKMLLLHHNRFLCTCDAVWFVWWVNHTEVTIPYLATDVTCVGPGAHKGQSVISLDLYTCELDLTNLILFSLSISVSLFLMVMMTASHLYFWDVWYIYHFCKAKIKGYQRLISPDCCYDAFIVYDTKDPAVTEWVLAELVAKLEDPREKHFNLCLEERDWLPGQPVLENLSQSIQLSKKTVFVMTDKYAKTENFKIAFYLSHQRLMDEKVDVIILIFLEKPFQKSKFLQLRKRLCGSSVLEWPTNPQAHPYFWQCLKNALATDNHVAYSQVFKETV
Kind of assay: Human TLR7 assay (SEAP reporter in HEK293 cells). It is filed as cell-based. Particulars: SEAP induction in HEK293 cells expressing human TLR7, overnight incubation at 37° C., 0.1% DMSO.
Text: The most common variant sequence of human TLR7 (represented by the EMBL sequence AF240467) was cloned into the mammalian cell expression vector pUNO and transfected into a HEK293 cell line already stably expressing the pNiFty2-SEAP reporter plasmid; integration of the reporter gene was maintained by selection with the antibiotic zeocin. Transfectants with stable TLR7 expression were selected using the antibiotic blasticidin. In this reporter cell-line, expression of secreted alkaline phosphatase (SEAP) is controlled by an NFkB/ELAM-1 composite promoter comprising five NFkB sites combined with the proximal ELAM-1 promoter. TLR signaling leads to the translocation of NFkB and activation of the promoter results in expression of the SEAP gene. TLR7-specific activation was assessed by determining the level of SEAP produced following overnight incubation of the cells at 37° C. with the standard compound in the presence of 0.1% (v/v) dimethylsulfoxide (DMSO). Concentration dependent induction of SEAP production by compounds was expressed as the concentration of compound which produced half of the maximal level of SEAP induction for that compound (pEC50).
As to `CCCCc1nc2c(N)nc3ccccc3c2n1CCCNCc1ccc(CC(=O)OC)cc1` [Example 1, Methyl 2-(4-((3-(4-amino-2-butyl-1H-imidazo[4,5-c]quinolin-1-yl)propylamino)methyl)phenyl)acetate], the pEC50 – broadly, the EC50 on a negative log10 scale, so that one unit is a factor of ten – was 6.50. The result for `CCCCc1nc2c(N)nc3ccccc3c2n1CCCNCc1cccc(CC(=O)OC)c1` [Example 2, Methyl 2-(3-((3-(4-amino-2-butyl-1H-imidazo[4,5-c]quinolin-1-yl)propylamino)methyl)phenyl)acetate] reads 6.40. The result for `CCCCc1nc2c(N)nc3ccccc3c2n1CCCN(Cc1cccc(CC(=O)OC)c1)C(=O)CN(C)C` [Example 4, Methyl 2-(3-((N-(3-(4-amino-2-butyl-1H-imidazo[4,5-c]quinolin-1-yl)propyl)-2-(dimethylamino)acetamido)methyl)phenyl)acetate] reads 7.40; that for `CCOCc1nc2c(N)nc3ccccc3c2n1CC1CCN(Cc2cccc(CC(=O)OC)c2)CC1` [Example 5, di-trifluoroacetate salt], 6.50.

As to `CCCCc1nc2c(N)nc3ccccc3c2n1CCCN(CCN(C)C)Cc1ccc(CC(=O)OC)cc1` [Example 6, Methyl[4-({[3-(4-amino-2-butyl-1H-imidazo[4,5-c]quinolin-1-yl)propyl][2-(dimethylamino)ethyl]amino}methyl)phenyl]acetate], the negative logarithm of the EC50 (pEC50) is 6.60. Consider `CCOCc1nc2c(N)nc3ccccc3c2n1CCCN(Cc1cccc(CC(=O)OC)c1)C(=O)CN(C)C` [Example 7, Methyl 2-(3-((N-(3-(4-amino-2-(ethoxymethyl)-1H-imidazo[4,5-c]quinolin-1-yl)propyl)-2-(dimethylamino)acetamido)methyl)phenyl)acetate], for which the pEC50 was 6.40. The result for `CCCCc1nc2c(N)nc3ccccc3c2n1CCCN(Cc1cccc(CC(=O)OC)c1)C1CCN(C)CC1` [Example 8, Methyl 2-(3-(((3-(4-amino-2-butyl-1H-imidazo[4,5-c]quinolin-1-yl)propyl)(1-methylpiperidin-4-yl)amino)methyl)phenyl)acetate] reads 6.50; that for `CCCCc1nc2c(N)nc3ccccc3c2n1CCCN(Cc1ccc(CC(=O)OC)cc1)C1CCN(C)CC1` [Example 9, Methyl 2-(4-(((3-(4-amino-2-butyl-1H-imidazo[4,5-c]quinolin-1-yl)propyl)(1-methylpiperidin-4-yl)amino)methyl)phenyl)acetate], 6.20. In turn, `CCCCc1nc2c(N)nc3ccccc3c2n1CCCN(Cc1ccc(CC(=O)OC)cc1)C(=O)CN1CCN(C)CC1` [Example 10, Methyl 2-(4-((N-(3-(4-amino-2-butyl-1H-imidazo[4,5-c]quinolin-1-yl)propyl)-2-(4-methylpiperazin-1-yl)acetamido)methyl)phenyl)acetate] showed a negative logarithm of the EC50 (pEC50) of 6.30. As for `CCCCc1nc2c(N)nc3ccccc3c2n1CCCN(CCCN(C)C)Cc1cccc(CC(=O)OC)c1` [Example 11, Methyl 2-(3-(((3-(4-amino-2-butyl-1H-imidazo[4,5-c]quinolin-1-yl)propyl)(3-(dimethylamino)propyl)amino)methyl)phenyl)acetate], the figure is 6.60. `CCCCc1nc2c(N)nc3ccccc3c2n1CCCN(CCCN1CCOCC1)Cc1cccc(CC(=O)OC)c1` [Example 12, Methyl 2-(3-(((3-(4-amino-2-butyl-1H-imidazo[4,5-c]quinolin-1-yl)propyl)(3-morpholinopropyl)amino)methyl)phenyl)acetate] showed a negative-log EC50 (pEC50) of 6.60.

The molecule `CCCCc1nc2c(N)nc3ccccc3c2n1CCCN(CCCN(C)CC)Cc1cccc(CC(=O)OC)c1` [Example 13, Methyl 2-(3-(((3-(4-amino-2-butyl-1H-imidazo[4,5-c]quinolin-1-yl)propyl)(3-(ethyl(methyl)amino)propyl)amino)methyl)phenyl)acetate] had a negative logarithm of the EC50 (pEC50) of 6.80. As for `CCCCc1nc2c(N)nc3ccccc3c2n1CCCN(CCCN1CCN(C)CC1)Cc1cccc(CC(=O)OC)c1` [Example 14, Methyl 2-(3-(((3-(4-amino-2-butyl-1H-imidazo[4,5-c]quinolin-1-yl)propyl)(3-(4-methylpiperazin-1-yl)propyl)amino)methyl)phenyl)acetate], the figure is 6.60; as for `CCCCc1nc2c(N)nc3ccccc3c2n1CCCN(Cc1ccc(CC(=O)OC)cc1)C(=O)CS(C)(=O)=O` [Example 15, Methyl 2-(4-((N-(3-(4-amino-2-butyl-1H-imidazo[4,5-c]quinolin-1-yl)propyl)-2-(methylsulfonyl)acetamido)methyl)phenyl)acetate], 6.40; as for `CCCCc1nc2c(N)nc3ccccc3c2n1CCCN(Cc1ccc(CC(=O)OC)cc1)C(C)=O` [Example 16, Methyl 2-(4-((N-(3-(4-amino-2-butyl-1H-imidazo[4,5-c]quinolin-1-yl)propyl)acetamido)methyl)phenyl)acetate], 6.90. As for `CCCCc1nc2c(N)nc3ccccc3c2n1CCCN(Cc1ccc(CC(=O)OC)cc1)C(=O)CN1CCOCC1` [Example 17, Methyl 2-(4-((N-(3-(4-amino-2-butyl-1H-imidazo[4,5-c]quinolin-1-yl)propyl)-2-morpholinoacetamido)methyl)phenyl)acetate], the figure is 6.80. As for `CCCCc1nc2c(N)nc3ccccc3c2n1CCCN(Cc1ccc(CC(=O)OC)cc1)C(=O)CN(C)CCOC` [Example 18], the figure is 7.20.

As for `CCCCc1nc2c(N)nc3ccccc3c2n1CCCN(Cc1ccc(CC(=O)OC)cc1)C(=O)CN1CCN(C(C)=O)CC1` [Example 19, Methyl 2-(4-((2-(4-acetylpiperazin-1-yl)-N-(3-(4-amino-2-butyl-1H-imidazo[4,5-c]quinolin-1-yl)propyl)acetamido)methyl)phenyl)acetate], the negative-log EC50 (pEC50) is 6.60. Consider `CCCCc1nc2c(N)nc3ccccc3c2n1CCCN(Cc1ccc(CC(=O)OC)cc1)C(=O)CN1CC[C@@H](O)C1` [Example 20, (R)-Methyl 2-(4-((N-(3-(4-amino-2-butyl-1H-imidazo[4,5-c]quinolin-1-yl)propyl)-2-(3-hydroxypyrrolidin-1-yl)acetamido)methyl)phenyl)acetate], for which the pEC50 is 6.60. The result for `CCCCc1nc2c(N)nc3ccccc3c2n1CCCN(Cc1ccc(CC(=O)OC)cc1)C(=O)CN1CCN(c2ncccn2)CC1` [Example 21, Methyl 2-(4-((N-(3-(4-amino-2-butyl-1H-imidazo[4,5-c]quinolin-1-yl)propyl)-2-(4-(pyrimidin-2-yl)piperazin-1-yl)acetamido)methyl)phenyl)acetate] reads 6.20; that for `CCCCc1nc2c(N)nc3ccccc3c2n1CCCN(Cc1ccc(CC(=O)OC)cc1)C(=O)CN1CCN(C(=O)OCC)CC1` [Example 22, Ethyl 4-(2-((3-(4-amino-2-butyl-1H-imidazo[4,5-c]quinolin-1-yl)propyl)(4-(2-methoxy-2-oxoethyl)benzyl)amino)-2-oxoethyl)piperazine-1-carboxylate], 6.20. The result for `CCCCc1nc2c(N)nc3ccccc3c2n1CCCN(Cc1ccc(CC(=O)OC)cc1)C(=O)CN1CCN(S(=O)(=O)CC)CC1` [Example 23, Methyl 2-(4-((N-(3-(4-amino-2-butyl-1H-imidazo[4,5-c]quinolin-1-yl)propyl)-2-(4-(ethylsulfonyl)piperazin-1-yl)acetamido)methyl)phenyl)acetate] reads 6.60.

For `CCCCc1nc2c(N)nc3ccccc3c2n1CCCN(Cc1ccc(CC(=O)OC)cc1)C(=O)CN1CCCCC1` [Example 24, Methyl 2-(4-((N-(3-(4-amino-2-butyl-1H-imidazo[4,5-c]quinolin-1-yl)propyl)-2-(piperidin-1-yl)acetamido)methyl)phenyl)acetate], the negative-log EC50 (pEC50) was 7.10. Turning to `CCCCc1nc2c(N)nc3ccccc3c2n1CCCN(Cc1ccc(CC(=O)OC)cc1)C(=O)CN1CCC(NC(=O)OC(C)(C)C)CC1` [Example 25, Methyl 2-(4-((N-(3-(4-amino-2-butyl-1H-imidazo[4,5-c]quinolin-1-yl)propyl)-2-(4-(tert-butoxycarbonylamino)piperidin-1-yl)acetamido)methyl)phenyl)acetate], the pEC50 was 6.70. Against the preceding molecule, the pEC50 is 0.40 log units lower.

With `CCCCc1nc2c(N)nc3ccccc3c2n1CCCN(Cc1ccc(CC(=O)OC)cc1)C(=O)CN1CCC(N(C)C(=O)OC(C)(C)C)CC1` [Example 26, Methyl 2-(4-((N-(3-(4-amino-2-butyl-1H-imidazo[4,5-c]quinolin-1-yl)propyl)-2-(4-(tert-butoxycarbonyl(methyl)amino)piperidin-1-yl)acetamido)methyl)phenyl)acetate], the negative logarithm of the EC50 (pEC50) was 6.50.
